According to patent US11267824B2, “Inhibitors of indoleamine 2,3-dioxygenase and/or tryptophan 2,3-dioxygenase” (IDORSIA PHARMACEUTICALS LTD, priority 2017, dated 2022):

Experiments:
[1] = target: Recombinant full-length human IDO1 (Homo sapiens (Human), UniProt P14902); test: IDO1 enzymatic assay (IDO inhibitory activity); type: biochemical; details: 2 nM enzyme, 5 μM L-tryptophan, pH6.5, 30 min pre-incubation, NFK quantified by LCMS; mean values if measured multiple times; read-out: hIDO activity (IC50 in nM)
Recombinant full-length human IDO1, sequence (P14902 whole entry): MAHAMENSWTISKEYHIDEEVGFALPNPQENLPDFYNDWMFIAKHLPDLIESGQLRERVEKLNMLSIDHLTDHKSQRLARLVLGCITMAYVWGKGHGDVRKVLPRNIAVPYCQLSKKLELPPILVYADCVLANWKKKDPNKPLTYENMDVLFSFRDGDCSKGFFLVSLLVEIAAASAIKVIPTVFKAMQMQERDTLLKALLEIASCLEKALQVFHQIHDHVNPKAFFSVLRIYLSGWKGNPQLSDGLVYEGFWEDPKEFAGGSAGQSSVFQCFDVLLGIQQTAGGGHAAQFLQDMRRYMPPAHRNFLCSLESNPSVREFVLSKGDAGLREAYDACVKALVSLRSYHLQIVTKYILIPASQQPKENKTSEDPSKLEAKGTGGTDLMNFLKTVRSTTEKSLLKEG
Experimental: 1) Testing Compounds for IDO Inhibitory Activity in an IDO1 Enzymatic Assay:
Recombinant full-length human IDO1 with a N-terminal hexahistidine tag expressed in E. coli and purified to homogeneity is incubated at a final concentration of 2 nM in assay buffer consisting of 37.5 mM phosphate buffer at pH6.5 supplemented with 10 mM sodium L-ascorbate, 0.45 μM methylene blue, 50 U/ml catalase, 0.01% BSA, and 0.01% Tween 20 (protocol modified from Seegers et al, JBS 2014). Example compounds are serially diluted in DMSO, further diluted in phosphate buffer, and added to the enzyme at final concentrations ranging from 10 μM to 0.5 nM. The final DMSO concentration is 0.6%. Following a pre-incubation of 30 minutes at RT, the reaction is started by the addition of L-tryptophan at a final concentration of 5 μM in assay buffer. After 30 minutes of incubation at RT, 3 μL of the reaction mixture are transferred to a 384 deep well plate containing 25 μL of deionized water. 100 μl of 200 nM L-Tryptophan-(indole-d5) in cold 100% methanol are added followed by a 10 minutes centrifugation at 4,000 rpm at 4° C. An additional 75 μL of deionized water are then added and followed by a 10 minutes centrifugation at 4,000 rpm at 4° C. The product of the reaction N′-Formylkynurenine (NFK) is quantified by LCMS and normalized to the L-Tryptophan-(indole-d5) signal. Samples with 0.6% DMSO (0% effect) and a TDO/IDO inhibitor (100% effect) are used as control samples to set the parameters for the non-linear regression necessary for the determination of the half-maximal inhibitory concentration (IC50) for each compound. For each compound concentration the percentage of activity compared to 0% and 100% effect is calculated as average ±STDEV (each concentration measured in duplicate). IC50 values and curves are generated with XLfit software (IDBS) using Dose-Response One Site model 203 (four parameter logistic curve model). When compounds are measured multiple times, mean values are given.

[2] = target: Recombinant human TDO comprising amino acids 19-407 (Homo sapiens (Human), UniProt P48775); test: TDO2 enzymatic assay (TDO inhibitory activity); type: biochemical; details: 15 nM enzyme, 200 μM L-tryptophan, pH7, 30 min pre-incubation, NFK quantified by LCMS; mean values if measured multiple times; read-out: hTDO activity (IC50 in nM)
Recombinant human TDO comprising amino acids 19-407, sequence (P48775 19-406 limits assumed): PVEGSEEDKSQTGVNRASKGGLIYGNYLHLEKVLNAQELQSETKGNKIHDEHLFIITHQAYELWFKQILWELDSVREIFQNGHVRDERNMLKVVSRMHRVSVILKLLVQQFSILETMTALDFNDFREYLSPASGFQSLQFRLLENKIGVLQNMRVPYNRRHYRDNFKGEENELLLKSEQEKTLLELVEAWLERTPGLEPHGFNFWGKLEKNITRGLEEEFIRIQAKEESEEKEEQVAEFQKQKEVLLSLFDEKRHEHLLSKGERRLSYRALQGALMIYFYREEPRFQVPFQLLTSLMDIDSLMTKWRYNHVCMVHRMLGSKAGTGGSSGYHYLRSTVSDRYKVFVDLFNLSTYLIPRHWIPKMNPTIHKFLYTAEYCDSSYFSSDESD
Experimental: 2) Testing Compounds for TDO Inhibitory Activity in a TDO2 Enzymatic Assay:
Recombinant human TDO comprising amino acids 19-407 with a N-terminal hexahistidine tag expressed in E. coli and purified to homogeneity is incubated at a final concentration of 15 nM in assay buffer consisting of 75 mM phosphate buffer at pH7 supplemented with 100 μM ascorbic acid, 50 U/ml Catalase, 0.01% BSA, and 0.01% Tween 20 (protocol modified from Seegers et al, JBS 2014). Example compounds are serially diluted in DMSO, further diluted in phosphate buffer, and added to the reaction mixture at final concentrations ranging from 10 μM to 0.5 nM. The final DMSO concentration is 0.6%. Following a pre-incubation of 30 minutes at RT, the reaction is started by the addition of L-tryptophan at a final concentration of 200 μM in assay buffer. After 30 minutes of incubation at RT, 3 μL of the reaction mixture are transferred to a 384 deep well plate containing 25 μL of deionized water. 100 μl of 200 nM L-Tryptophan-(indole-d5) in cold 100% methanol are added followed by a 10 minutes centrifugation at 4,000 rpm at 4° C. An additional 75 μL of deionized water are then added and followed by a 10 minutes centrifugation at 4,000 rpm at 4° C. The product of the reaction N′-Formylkynurenine (NFK) is quantified by LCMS and normalized to the L-Tryptophan-(indole-d5) signal. Samples with 0.6% DMSO (0% effect) and a TDO/IDO inhibitor (100% effect) are used as control samples to set the parameters for the non-linear regression necessary for the determination of the half-maximal inhibitory concentration (IC50) for each compound. For each compound concentration the percentage of activity compared to 0% and 100% effect is calculated as average±STDEV (each concentration measured in duplicate). IC50 values and curves are generated with XLfit software (IDBS) using Dose-Response One Site model 203 (four parameter logistic curve model). When compounds are measured multiple times, mean values are given.

Row | SMILES | IC50 [1] | IC50 [2]
1 | Cc1sc2cncn2c1C(O)c1ccccc1 (racemic) [Example 162, rac-(2-Methyl-imidazo[5,1-b]thiazol-3-yl)-phenyl-methanol] | 561 nM | 1000 nM
2 | O[C@H](c1c(-c2ccccc2)sc2cncn12)C1CCCCC1 [Example 92a, (S)-Cyclohexyl-(2-phenyl-imidazo[5,1-b]thiazol-3-yl)-methanol] | 242 nM | 171 nM
3 | OC(CC1CC2C=CC1C2)c1c(C2CC2)sc2cncn12 (stereo not shown) [Example 38, 2-Bicyclo[2.2.1]hept-5-en-2-yl-1-(2-cyclopropyl-imidazo[5,1-b]thiazol-3-yl)-ethanol] | 22.6 nM | 191 nM
4 | CC1(C(O)c2c(C(F)(F)F)sc3cncn23)CCCC1 (racemic) [Example 137, rac-(1-Methyl-cyclopentyl)-(2-trifluoromethyl-imidazo[5,1-b]thiazol-3-yl)-methanol] | 16.3 nM | 54.7 nM
5 | CCc1sc2cncn2c1C(O)C1(C)CCCCC1 (racemic) [Example 175, rac-(2-Ethyl-imidazo[5,1-b]thiazol-3-yl)-(1-methyl-cyclohexyl)-methanol] | 7.04 nM | 66.8 nM
6 | OC(c1cn(C2CCCCC2)nn1)c1c(C2CC2)sc2cncn12 (racemic) [Example 197, rac-(1-Cyclohexyl-1H-[1,2,3]triazol-4-yl)-(2-cyclopropyl-imidazo[5,1-b]thiazol-3-yl)-methanol] | 287 nM | > 10200 nM
7 | CC1(C(O)c2c(C3CC3)sc3cncn23)CCCCC1 (racemic) [Example 105, rac-(2-Cyclopropyl-imidazo[5,1-b]thiazol-3-yl)-(1-methyl-cyclohexyl)-methanol] | 10.6 nM | 104 nM
8 | CC1CCC(C(O)c2c(C(F)(F)F)sc3cncn23)C1 (stereo not shown) [Example 116, (3-Methyl-cyclopentyl)-(2-trifluoromethyl-imidazo[5,1-b]thiazol-3-yl)-methanol] | 45.5 nM | 701 nM
9 | CCCc1sc2cncn2c1C(O)CC1CCCCC1 (racemic) [Example 129, rac-2-Cyclohexyl-1-(2-propyl-imidazo[5,1-b]thiazol-3-yl)-ethanol] | 36.8 nM | 595 nM
10 | OC(CC12CCC(CC1)C2)c1c(C2CC2)sc2cncn12 (racemic) [Example 22, rac-2-Bicyclo[2.2.1]hept-1-yl-1-(2-cyclopropyl-imidazo[5,1-b]thiazol-3-yl)-ethanol] | 33.7 nM | 177 nM
11 | O[C@@H](CC1CCCCCC1)c1c(C2CC2)sc2cncn12 [Example 28a, (S)-2-Cycloheptyl-1-(2-cyclopropyl-imidazo[5,1-b]thiazol-3-yl)-ethanol] | 22.2 nM | 358 nM
12 | OC(CC1CCCCC1)c1c(-c2ccsc2)sc2cncn12 (racemic) [Example 95, rac-2-Cyclohexyl-1-(2-thiophen-3-yl-imidazo[5,1-b]thiazol-3-yl)-ethanol] | 313 nM | 386 nM
13 | O[C@@H](CC1CCCCC1)c1c(C2CC2)sc2cncn12 [Example 2a, (S)-2-Cyclohexyl-1-(2-cyclopropylimidazo[5,1-b]thiazol-3-yl)ethan-1-ol] | 10.3 nM | 268 nM
14 | O[C@@H](c1ccccc1)c1c(C2CC2)sc2cncn12 [Example 50a, (S)-(2-Cyclopropyl-imidazo[5,1-b]thiazol-3-yl)-phenyl-methanol] | 20 nM | 494 nM
15 | CC1CCCC(CC(O)c2c(C3CC3)sc3cncn23)C1 (stereo not shown) [Example 29, 1-(2-Cyclopropyl-imidazo[5,1-b]thiazol-3-yl)-2-(3-methyl-cyclohexyl)-ethanol] | 21.4 nM | 509 nM
16 | OC(CC1CCCCC1)c1c(C2CC(F)(F)C2)sc2cncn12 (racemic) [Example 155, rac-2-Cyclohexyl-1-[2-(3,3-difluoro-cyclobutyl)-imidazo[5,1-b]thiazol-3-yl]-ethanol] | 485 nM | 1910 nM
17 | OC(c1ccsc1)c1c(C2CC2)sc2cncn12 (racemic) [Example 173, rac-(2-Cyclopropyl-imidazo[5,1-b]thiazol-3-yl)-thiophen-3-yl-methanol] | 77.3 nM | 1770 nM
18 | OC(c1cccs1)c1c(Br)sc2cncn12 (racemic) [Example 32, rac-(2-Bromo-imidazo[5,1-b]thiazol-3-yl)-thiophen-2-yl-methanol] | 63.4 nM | 643 nM
19 | Cc1sc2cncn2c1C(O)CC1CCC(c2ccccc2)C1 (stereo not shown) [Example 107, 1-(2-Methyl-imidazo[5,1-b]thiazol-3-yl)-2-(3-phenyl-cyclopentyl)-ethanol] | 167 nM | 1890 nM
20 | OC(c1c(C2CC2)sc2cncn12)C1CCc2ccccc2C1 (stereo not shown) [Example 80, (2-Cyclopropyl-imidazo[5,1-b]thiazol-3-yl)-(1,2,3,4-tetrahydro-naphthalen-2-yl)-methanol] | 34.2 nM | 1810 nM
21 | CC1CCCCC1CC(O)c1c(C(F)(F)F)sc2cncn12 (stereo not shown) [Example 117, 2-(2-Methyl-cyclohexyl)-1-(2-trifluoromethyl-imidazo[5,1-b]thiazol-3-yl)-ethanol] | 165 nM | 2680 nM
22 | OC(Cc1cccc2ccccc12)c1c(C2CC2)sc2cncn12 (racemic) [Example 67, rac-1-(2-Cyclopropyl-imidazo[5,1-b]thiazol-3-yl)-2-naphthalen-1-yl-ethanol] | 325 nM | 3510 nM
23 | COC1CCC(CC(O)c2c(C3CC3)sc3cncn23)CC1 (racemic) [Example 131, rac-1-(2-Cyclopropyl-imidazo[5,1-b]thiazol-3-yl)-2-(4-methoxy-cyclohexyl)-ethanol] | 11.3 nM | 1330 nM
24 | OC(CC1CCCCC1)c1c(Cl)sc2cncn12 (racemic) [Example 16, rac-1-(2-Chloro-imidazo[5,1-b]thiazol-3-yl)-2-cyclohexyl-ethanol] | 159 nM | 1210 nM
25 | CC1(C(O)c2c(C3CC3)sc3cncn23)CCCCCC1 (racemic) [Example 166, rac-(2-Cyclopropyl-imidazo[5,1-b]thiazol-3-yl)-(1-methyl-cycloheptyl)-methanol] | 32.1 nM | 310 nM
26 | O[C@H](c1c(Cl)sc2cncn12)C1CCCCC1 [Example 13a, (S)-(2-Chloroimidazo[5,1-b]thiazol-3-yl)(cyclohexyl)methanol] | 93 nM | 162 nM
27 | OC(CC1CCCC(C(F)(F)F)C1)c1c(C2CC2)sc2cncn12 (stereo not shown) [Example 102, 1-(2-Cyclopropyl-imidazo[5,1-b]thiazol-3-yl)-2-(3-trifluoromethyl-cyclohexyl)-ethanol] | 87.6 nM | 818 nM
28 | OC(c1c(C2CC2)sc2cncn12)C1CCC(Cc2ccccc2)C1 (stereo not shown) [Example 77, (3-Benzyl-cyclopentyl)-(2-cyclopropyl-imidazo[5,1-b]thiazol-3-yl)-methanol] | 91.2 nM | 3900 nM
29 | CC1CCC(C(O)c2c(C3CC3)sc3cncn23)C1 (stereo not shown) [Example 30, (2-Cyclopropyl-imidazo[5,1-b]thiazol-3-yl)-(3-methyl-cyclopentyl)-methanol] | 12.1 nM | 454 nM
